Measured values published in the supplement of paper PMC10307832.

Columns and labels:
Experiment in all cases: relative viability (nuclei count vs DMSO), 5 days (fraction); higher = more cells survive
[1] = compound: Cc1ccc2nc(NCCN)c3ncc(C)n3c2c1
Procedure, shortened: (§1)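 Hoechst staining, done together with fixation and permeabilisation, marked nuclei for 4× imaging and MetaXpress counting. This followed 5 days without medium change after lung cancer cell lines, kept overnight at 37 °C in 1536-well plates, were pinned with five library-drug doses (not always all listed) spaced by √10 on vehicle-anchored plates. Viability is the ratio of treated-well to vehicle-well nuclei, expressed as a median across plates. Plates passed only at control CV below 25% with at least one doubling.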

Salubrinal = compound: O=C(/C=C/c1ccccc1)NC(NC(=S)Nc1cccc2cccnc12)C(Cl)(Cl)Cl [Salubrinal]
Procedure, shortened: as §1

[2] = compound: Cc1ccc2nc(NCCN)c3ncc(C)n3c2c1 + CC1(C)CCC(c2ccc(Cl)cc2)=C(CN2CCN(c3ccc(C(=O)NS(=O)(=O)c4ccc(N[C@H](CCN5CCOCC5)CSc5ccccc5)c(S(=O)(=O)C(F)(F)F)c4)cc3)CC2)C1 [Navitoclax] (partner 0.5 µM)
Procedure, shortened: (§2)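 Values are medians from duplicate plates. Each reflects relative viability, defined as the nuclei count of treated wells over that of vehicle wells. Lung cancer cell lines in 1536-well plates were pin-tool dosed one day after seeding with one drug alone or with a fixed anchor-drug dose plus five library-drug doses (not always all listed) in √10 steps, then fixed, stained and imaged at 4× after 5 days.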

[3] = compound: Cc1ccc2nc(NCCN)c3ncc(C)n3c2c1 + COc1cc2c(Oc3ccc(NC(=O)C4(C(=O)Nc5ccc(F)cc5)CC4)cc3F)ccnc2cc1OCCCN1CCOCC1 [Foretinib] (partner 0.25 µM)
Procedure, shortened: as §2

Row | Cell Line | relative viability ([1]; 0.04 µM) | relative viability ([1]; 0.1265 µM) | relative viability ([1]; 0.4 µM) | relative viability ([1]; 1.265 µM) | relative viability ([1]; 4 µM) | relative viability (Salubrinal; 0.08 µM) | relative viability (Salubrinal; 0.253 µM) | relative viability (Salubrinal; 0.8 µM) | relative viability (Salubrinal; 2.53 µM) | relative viability (Salubrinal; 8 µM) | relative viability ([2]; first compound 0.04 µM) | relative viability ([2]; first compound 0.1265 µM) | relative viability ([2]; first compound 0.4 µM) | relative viability ([2]; first compound 1.265 µM) | relative viability ([2]; first compound 4 µM) | relative viability ([3]; first compound 0.04 µM) | relative viability ([3]; first compound 0.1265 µM) | relative viability ([3]; first compound 0.4 µM) | relative viability ([3]; first compound 1.265 µM) | relative viability ([3]; first compound 4 µM)
1 | NCI-H1703 | 1.07 | 1.07 | 1.01 | 1.16 | 0.91 | 1.12 | 1.03 | 0.994 | 0.881 | 0.942 | 1.3 | 0.881 | 1 | 1.18 | 0.707 | 0.307 | 0.316 | 0.322 | 0.368 | 0.327
2 | PC-3 [JPC-3] | 1.01 | 1.05 | 1 | 1.09 | 0.998 | 1.05 | 0.915 | 1.16 | 1.04 | 0.969 | 0.826 | 0.767 | 0.848 | 0.786 | 0.827 | 1.1 | 1.04 | 0.934 | 0.986 | 1.09
3 | BEN | 1.07 | 0.931 | 0.93 | 1.03 | 1.04 | 1.07 | 0.961 | 1.07 | 1.15 | 0.976 | 0.0603 | 0.0647 | 0.0665 | 0.0492 | 0.0759 | 0.82 | 0.86 | 0.657 | 0.788 | 0.752
4 | NCI-H1666 | 1.08 | 0.951 | 0.962 | 0.993 | 0.993 | 0.953 | 0.99 | 0.987 | 0.888 | 1.2 | 0.886 | 0.922 | 0.96 | 0.89 | 0.776 | 0.96 | 0.903 | 1.04 | 1.02 | 0.921
5 | LC-2-ad | 0.991 | 1.01 | 0.911 | 1.03 | 0.965 | 1.01 | 0.921 | 1.13 | 0.99 | 0.93 | 0.404 | 0.431 | 0.491 | 0.526 | 0.508 | 0.96 | 0.879 | 0.876 | 0.984 | 0.868
6 | SK-LU-1 | 1.06 | 1 | 1.03 | 1.05 | 0.976 | 1.11 | 0.905 | 1.19 | 1.11 | 0.878 | 1.02 | 0.898 | 0.812 | 0.769 | 0.778 | 0.824 | 0.836 | 0.9 | 0.791 | 0.781
7 | ChaGo-K-1 | 0.958 | 1.01 | 1.05 | 1.01 | 0.874 | 1.05 | 0.912 | 1.15 | 1.01 | 0.922 | 0.983 | 1.15 | 0.913 | 0.976 | 0.782 | 0.897 | 1.03 | 0.884 | 0.82 | 0.895
8 | COR-L 105 | 0.997 | 0.864 | 0.955 | 1.05 | 0.801 | 0.93 | 0.895 | 0.94 | 0.88 | 0.83 | 0.809 | 0.802 | 0.802 | 0.899 | 0.698 | 1.18 | 0.995 | 0.86 | 0.987 | 1.15
9 | NCI-H1975 | 1 | 0.951 | 0.934 | 0.85 | 0.869 | 0.93 | 0.82 | 1.01 | 1.04 | 0.935 | 1.06 | 1.12 | 1.08 | 0.952 | 0.863 | 0.992 | 0.981 | 0.895 | 0.947 | 0.882
10 | Calu-6 | 1.03 | 0.986 | 0.974 | 1.02 | 0.854 | 1.17 | 0.925 | 1.01 | 0.981 | 0.936 | 0.829 | 0.799 | 1.05 | 0.807 | 0.321 | 0.855 | 0.841 | 0.815 | 0.833 | 0.811
11 | NCI-H1993 | 0.948 | 0.995 | 0.779 | 0.941 | 0.789 | 0.98 | 0.857 | 1.02 | 1 | 1.1 | 0.799 | 0.782 | 0.676 | 0.752 | 0.692 | 0.904 | 0.685 | 0.748 | 0.626 | 0.698
12 | RERF-LC-KJ | 1.03 | 0.996 | 0.93 | 0.938 | 0.823 | 1.05 | 1.02 | 1.04 | 0.98 | 0.888 | 0.881 | 0.821 | 1.02 | 0.65 | 0.726 | 0.911 | 0.845 | 0.851 | 0.796 | 0.828
13 | NCI-H23 | 1.06 | 1.11 | 0.853 | 1.09 | 0.907 | 1.11 | 0.858 | 1.18 | 0.995 | 1.08 | 0.867 | 0.904 | 0.822 | 0.791 | 0.814 | 1.09 | 1.04 | 0.963 | 0.88 | 1.03
14 | HCC-366 | 1.03 | 1.04 | 1.05 | 0.98 | 0.992 | 1.09 | 0.915 | 1.04 | 1.01 | 1.04 | 1.26 | 1.07 | 1.03 | 0.997 | 1.02 | 0.914 | 0.945 | 0.934 | 0.945 | 0.917
15 | EMC-BAC-2 | 1 | 1 | 0.966 | 1.08 | 0.946 | 0.934 | 1.06 | 1.25 | 0.996 | 0.973 | 1.17 | 1.18 | 1.06 | 1.15 | 1.17 | 0.966 | 0.992 | 0.988 | 1.01 | 1.05
16 | NCI-H2405 | 1.02 | 1.01 | 1.03 | 1.05 | 0.915 | 1.01 | 1.03 | 1.09 | 1.03 | 0.966 | 0.849 | 0.905 | 0.936 | 0.718 | 0.725 | 1.05 | 1.04 | 1.05 | 0.978 | 0.986
